Reference: PubChem BioAssay AID1329 (NMMLSC, 2008)
Calls of active or inactive are those of the source. No rule for the calls is given here.

target: Induced myeloid leukemia cell differentiation protein Mcl-1 (Homo sapiens) (UniProt Q07820); test: modulators of Bim peptide binding to Mcl-1, dose response, biochemical, bead-based flow cytometry, multiplexed, human (AID 1329); details: Bim peptide-Mcl-1 binding, MCF
Sequence (Q07820 whole entry, looked up): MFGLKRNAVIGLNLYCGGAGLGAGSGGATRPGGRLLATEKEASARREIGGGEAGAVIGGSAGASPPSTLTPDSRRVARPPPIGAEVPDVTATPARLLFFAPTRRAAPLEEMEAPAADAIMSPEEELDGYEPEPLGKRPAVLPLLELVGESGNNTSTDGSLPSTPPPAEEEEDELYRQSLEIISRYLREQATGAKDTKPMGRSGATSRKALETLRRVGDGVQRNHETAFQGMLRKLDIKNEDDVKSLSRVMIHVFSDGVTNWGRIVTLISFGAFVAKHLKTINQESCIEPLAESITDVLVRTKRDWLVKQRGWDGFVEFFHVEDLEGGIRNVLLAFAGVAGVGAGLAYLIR

SMILES | percent span
CN(C)c1ccc(C(=O)/C=C/c2ccc(Br)cc2)cc1 | inactive
O=C1C(Cl)=C(N2CCN(c3ccccc3[N+](=O)[O-])CC2)C(=O)c2ccccc21 | inactive
Cc1ccc(-c2cc(-c3ccc4c(c3)OCO4)c(C#N)c(N)n2)o1 | inactive
COc1ccc(NC(=O)/C(C#N)=C/c2c(C)nn(-c3ccc(F)cc3)c2Cl)cc1Cl | inactive
CCN(CC)c1ccc(Nc2nc(N3CCOCC3)c3ccccc3n2)cc1 | inactive
Cc1ccc(-c2n[nH]c(=S)n2-c2ccccc2)cc1 | inactive
CCOc1ccccc1NC(=O)CSc1nnc2ccc(-c3cccnc3)nn12 | inactive
COc1ccc(CC(=O)Nc2ccc(-c3nc4cc(C)ccc4o3)c(O)c2)cc1OC | inactive
COc1ccc(N2C(=O)C(Cl)=C(Oc3cccc(OC)c3)C2=O)cc1 | inactive
CCCCCCn1nc(C(=O)Nc2nc3c(s2)CCCC3)c2ccccc2c1=O | inactive
CCNC(=S)Nc1ccc(OCC)cc1 | inactive
COc1ccccc1C1=Nc2cccc3cccc(c23)N1 | inactive
CCOC(=O)c1c(NC(=O)c2ccccc2N(C)S(=O)(=O)c2ccccc2)sc2c1CCCC2 | inactive
O=S1(=O)N=C(N(CCO)/N=C/c2ccccc2)c2ccccc21 | inactive
CCOC(=O)/C(=C\c1ccc(Cl)cc1)c1nc2sc(C)c(C)c2c(=O)[nH]1 | inactive
CCOc1cc(/C=C2/N=C(C)C(C(=O)OC)=C2O)ccc1O | inactive
COc1ccc(N=C2NC(=O)/C(=C\C=C\c3ccco3)S2)cc1 | inactive
CN(C)c1cccc(NC(=O)C2(C)CC2(Cl)Cl)c1 (stereo not given) | inactive
O=c1nc2c(O)cccn2c2c1c(=O)[nH]c1ccccc12 | inactive
COc1cc(N2CCOCC2)ccc1C=C1C(=O)NC(=O)NC1=O | inactive
O=C(/C=C/c1ccc(-c2ccccc2[N+](=O)[O-])o1)c1ccccc1 | inactive
Cc1ccc(C)n1-c1ccc(N2CCOCC2)cc1 | inactive
CC(C)(C)C1CCC(=NNC(=O)c2cc3c(s2)CCCC3)CC1 (stereo not given) | inactive
CC(/C=C/C(=O)c1ccc(C)cc1)=C\c1ccccc1 | inactive
Cc1csc(Nc2ccccc2C(F)(F)F)n1 | inactive

SMILES | percent span
CCN(CC)c1ccc(NC(=O)COc2ccccc2C)cc1S(=O)(=O)Nc1ccccc1OC | inactive
C#CCOCCOCCOCCNc1nc(N2CCN(C(=O)[C@H]([C@@H](C)CC)n3cc([C@@H](N)CC(C)C)nn3)CC2)nc(N2CCN(C(=O)[C@H](Cc3cc4ccccc4[nH]3)n3cc([C@@H](N)Cc4ccc(O)cc4)nn3)CC2)n1 | inactive
Cc1ccc(-c2cc(C(=O)Nc3nccs3)c3ccccc3n2)o1 | inactive
CCCn1c(C)cc(-c2csc(N)n2)c1C | inactive
CCn1c(C)c(/C=N/Nc2nc3ccccc3s2)c2ccccc21 | inactive
COc1ccc(N2CC(C(=O)Nc3nnc(SCC(=O)c4ccccc4)s3)CC2=O)cc1 (stereo not given) | inactive
CC(C)C(=O)NC(c1ccccc1)c1cc([N+](=O)[O-])c2cccnc2c1O (stereo not given) | inactive
Cc1ccc(NC(=S)N2CCn3cccc3C2c2cccnc2)cc1 (stereo not given) | inactive
Cc1cc(-c2nnc(CCC(=O)NC(C)c3cccc4ccccc34)o2)no1 (stereo not given) | inactive
CCOC(=O)CSC1=NC(=O)/C(=C/c2ccc(OC)cc2)S1 | inactive
Cc1ccc(CNc2ccc3c(c2)OCO3)c(C)c1 | inactive
O=C1CSc2ccc(C(=O)Nc3cccc(S(=O)(=O)Nc4ccc(Br)cc4)c3)cc2N1 | inactive
COc1cc(N=c2ssnc2Cl)cc(OC)c1OC | inactive
Cc1c(Cc2ccccc2)sc(N)c1C(N)=O | inactive
CCC(=O)N(CC)C1=C(O)c2ccccc2C(=O)C1=O | inactive
Cc1cccn2c(=O)c3cc(C(N)=S)c(=N)n(CCCN4CCOCC4)c3nc12 | inactive
CCN(CC)c1ccc(NC(=O)c2ccc(=O)[nH]c2)cc1S(=O)(=O)Nc1ccccc1OC | inactive
CCOc1cccc(CNc2ccc(O)cc2)c1OCc1ccc(Cl)cc1 | inactive
Cc1ccc(-c2ccc(CCC(=O)O)n2NC(=O)c2cccs2)cc1 | inactive
O=C1c2ccccc2-c2onc3ccc(NCc4ccco4)c1c23 | inactive
COc1ccc(C2CC(=O)C3=C(C2)Nc2ccccc2NC3c2coc3ccccc3c2=O)cc1OC (stereo not given) | inactive
COC(=O)c1[nH]c2ccccc2c1NC(=O)c1ccccc1[N+](=O)[O-] | inactive
Nc1ccc(N2CCCCCC2)cc1 | inactive
COc1ccc(N2C(=O)C(Cl)=C(Nc3c(C)n(C)n(-c4ccccc4)c3=O)C2=O)cc1 | inactive
Fc1cccc(Nc2nc(-c3ccncc3)nc3ccccc23)c1 | inactive
